{
  "source": "patent US10172921B2",
  "about": "“Method of treating an inflammatory bowel disease comprising agonists of orexin-1 receptor” (INSERM (INSTITUT NATIONAL DE LA SANTÉ ET DE LA RECHERCHE …, priority 2014, dated 2019)",
  "key": {"EXCY2 mice": {"system": "EXCY2 mice", "experiment": "Spontaneous UC-like colitis in EXCY2 mice (IL10-/-; Nox1-/-): DAI, colon histology, stress pathways", "type": "in vivo", "conditions": "for DAI score: OxA 0.22 μmoles/kg intraperitoneal or 5-ASA 0.053 g/kg oral, scale 0 (no symptoms) to 4 (severe colitis), untreated mice 4, FIG. 7; for severe colitis: 10 week-old EXCY2 mice, 2 IP/week during 3 weeks", "text": "FIG. 4: Histological aspect of colon mucosa in OxA treated mice (right) and non-treated mice (left)\nFIG. 7: OXA better improves the DAI (weight and colitis score) of EXCY2 mice that the gold standard 5-aminosalicylic acid (5-ASA) treatment. Mice were intraperitoneal injected or not with OxA (0.22 μmoles/kg) or orally treated with 5-ASA (0.053 g/kg). DAI score including the weight loss, severity of diarrhea, the presence of blood in the stool, inflammation and edema was estimated using a scale ranging from 0 (no symptoms) to 4 (severe colitis).\nDSS mouse model has been extensively used to decipher the mucosal inflammation in IBD, UC pathogenesis, and preclinical studies. However, mice show differential susceptibilities and responsiveness to DSS-induced colitis depending on their genetic background, gender. DSS model is a faithful model of inflammation but departs from Ulcerative Colitis in part for lack of the inflammation gradient from the rectum to the proximal colon usually observed in UC, any deregulation of ER stress in goblet cells known to be an early etiological factor of UC, and no digestive or extra-digestive complications of UC such as cholangitis and colorectal cancer, respectively. The use of genetically modified mice model represents a good alternative to chemically-induced colitis mice model. The recent development of a new spontaneous UC-like mouse model (EXCY2 mice, WO/2012/140516) consisting of a double KO of IL10 and Nox1 (IL10^−/−; Nox1^−/−) is ideally suited to study the OxA effect on spontaneous colitis. Indeed, EXCY2 mice 1) develop a spontaneous colitis at 6/7 weeks of age with an upwards gradient from the rectum and reproduce all molecular characteristics seen in UC including, loss of goblet cells, deregulation of ER stress, protective effect of tobacco; 2) spontaneously colonic cancer at 8 months of age (35-40% of mice); 3) develop mild cholangitis.\n(§1) In contrast, the secretion of anti-inflammatory cytokine IL10 was unchanged (FIG. 6).\nThe treatment of EXCY2 mice with 5-ASA reduced the DAI score as compared to untreated mice, i.e. 3 vs 4, respectively."}, "[1]": {"system": "cytokines secretion in colon extracts from DSS-treated mice", "experiment": "Cytokine secretion in colon extracts of DSS-induced colitis mice", "type": "in vivo", "conditions": "FIG. 3", "text": "FIG. 3: OXA effects on cytokines secretion in DSS-induced colitis mice\n(§2) These observations are confirmed by histologic aspect of colon epithelium (histologic scoring by a GI pathologist). Thus, OxA has probably an anti-inflammatory effect on DSS-induced colitis. To confirm this hypothesis, we have investigated the anti-inflammatory effect of OxA treatment on cytokines secretion in colon extracts from DSS-treated mice. […] In contrast, OxA has no effect on INFγ, IL10, and IL12 cytokine secretion in colon extracts (FIG. 3)."}, "[2]": {"system": "cytokines secretion in EXCY2 mice", "experiment": "Cytokine secretion in colons of EXCY2 mice (Cytokine CBA kits)", "type": "in vivo", "conditions": "OxA 0.22 μmoles/kg, FIG. 6", "procedure": "FIG. 6: OXA effects on cytokines secretion in EXCY2 mice. Colons of EXCY2 mice from untreated mice (white) and treated with OxA (0.22 μmoles/kg) treatment (black) were resected after animal sacrifice. Then, protein extraction was performed by tissue disruption. Cytokines were determined using Cytokine CBA kits (see Material and Methods).\nas §1"}, "DSS-induced colitis mice": {"system": "DSS-induced colitis mice", "experiment": "DSS-induced colitis in mice: Disease Activity Index and colon histology", "type": "in vivo", "text": "FIG. 2: OXA ameliorates the DAI (weight and colitis score) of DSS-induced colitis mice. Mice were orally treated with 5% DSS for 7 days.\nFIG. 5: OXA ameliorates the DAI (weight and colitis score) of DSS-induced colitis mice. Mice were orally treated with 5% DSS for 7 days in the presence or in the absence of daily intraperitoneal injection of OxA (0.22 μmoles/kg). DAI score including weight loss, severity of diarrhea, the presence of blood in the stool, inflammation and edema was estimated using a scale ranging from 0 (no symptoms) to 4 (severe colitis). DSS, dextran sulfate sodium; WT, wild type mice.\nBased on these observations, we have investigated the effect of Orexin A (OxA) on acute inflammation in mice treated with Dextran Sulfate Sodium (DSS). OxA was preferentially chosen in these experiments since the presence of two disulphide bridges confers it more stability. DSS induces acute colitis characterized by weight loss, bloody diarrhea, intestinal ulcerations and infiltrations with granulocytes.\nas §2\nAs shown in FIG. 5 when DSS-induced colitis mice were treated with OxA, the DAI score was ameliorated (about of 1.5)."}, "Caco2 cells": {"system": "Caco2 cells", "experiment": "Oxidative stress and ER stress pathways in Caco2 cells", "type": "cell-based"}, "[3]": {"conditions": "colon extracts of DSS-induced colitis mice"}, "[4]": {"conditions": "colon extracts of DSS-treated mice"}},
  "data": [
    {"compound": "Nc1ccc(O)c(C(=O)O)c1", "note": "[5-ASA, 5-aminosalicylic acid, reference compound]", "values": [
      {"measurement": "DAI score", "setting": "EXCY2 mice; EXCY2 mice", "value": 3}
    ]},
    {"compound": "Orexin-A (XPLPDCCRQKTCSCRLYELLHGAGNHAAGILTLX; not fully specified; two disulphide bridges; MOD_RES (1)..(1) PYRROLIDONE CARBOXYLIC ACID; (34)..(34) Xaa can be any naturally occurring amino acid; listed as Homo sapiens) [OxA]", "values": [
      {"measurement": "IL1B secretion", "setting": "[1]; [3]", "value": "reduces"},
      {"measurement": "IL6 secretion", "setting": "[1]; [3]", "value": "reduces"},
      {"measurement": "IL8 homolog secretion", "setting": "[1]; [3]", "value": "reduces"},
      {"measurement": "TNFα secretion", "setting": "[1]; [3]", "value": "reduces"},
      {"measurement": "IL10 cytokine secretion", "setting": "[1]; [4]", "value": "no effect"},
      {"measurement": "IL12 cytokine secretion", "setting": "[1]; [4]", "value": "no effect"},
      {"measurement": "INFγ cytokine secretion", "setting": "[1]; [4]", "value": "no effect"},
      {"measurement": "IFNγ secretion", "setting": "[2]", "value": "strong reduction"},
      {"measurement": "IL6 secretion", "setting": "[2]", "value": "strong reduction"},
      {"measurement": "IL10 secretion", "setting": "[2]", "value": "unchanged"},
      {"measurement": "IL12 secretion", "setting": "[2]", "value": "strong reduction"},
      {"measurement": "MCP1 secretion", "setting": "[2]", "value": "strong reduction"},
      {"measurement": "TNFα secretion", "setting": "[2]", "value": "strong reduction"},
      {"measurement": "DAI score", "setting": "DSS-induced colitis mice; 5% DSS orally 7 days, daily intraperitoneal OxA 0.22 μmoles/kg, scale 0 (no symptoms) to 4 (severe colitis), FIG. 5, printed as 'ameliorated (about of 1.5)'", "value": "~1.5"},
      {"measurement": "histologic aspect of colon epithelium", "setting": "DSS-induced colitis mice; DSS-treated mice, histologic scoring by a GI pathologist", "value": "ameliorates"},
      {"measurement": "Disease Activity Index (DAI) scored by measuring weight, length of colon, diarrhea and the presence of blood in the stool", "setting": "DSS-induced colitis mice; orally DSS-treated mice (5% DSS for 7 days), FIG. 2", "value": "ameliorates"},
      {"measurement": "deregulated pathways involved in the onset of colitis (oxidative stress and ER stress)", "setting": "Caco2 cells", "value": "induced"},
      {"measurement": "severe colitis", "setting": "EXCY2 mice; 0.22 μmoles/kg OxA", "value": "alleviated"},
      {"measurement": "severe colitis", "setting": "EXCY2 mice; 1 μM OxA", "value": "alleviated"},
      {"measurement": "deregulated pathways involved in the onset of colitis (oxidative stress and ER stress)", "setting": "EXCY2 mice; EXCY2 mice", "value": "induced"},
      {"measurement": "DAI score", "setting": "EXCY2 mice; EXCY2 mice", "value": 1.5},
      {"measurement": "colonic mucosa (general crypts aspect, crypt size, presence of goblet cells, absence of immune cells infiltration)", "setting": "EXCY2 mice; OxA-treated vs vehicle treated EXCY2 mice, FIG. 4", "value": "normal colonic mucosa"}
    ]}
  ]
}
